Data: patent publication US8708045B2, “Multifunctional boronic acid crosslinking agents and associated methods” (Halliburton Energy Services, Inc., priority 2010, dated 2014)

Experiment: Visual solubility of 4-vinylphenyl boronic acid with sorbitol as solubilizing agent
Type: physicochemical
Procedure: In this example, sorbitol was used as an illustrative solubilizing agent to improve the solubility of 4-vinylphenyl boronic acid. A stock solution of 20 g of sorbitol in 200 mL of deionized water was prepared to give a sorbitol concentration of 0.55 M. In several plastic sealable containers was placed 11-15 mg of the boronic acid (maximum of 0.1 mmol in each container), and a variety of solutions were added to the containers, sometimes with pH adjustment. Thereafter, the containers were vortex mixed for 5 minutes, and solubility was analyzed visually.

With `C=Cc1ccc(B(O)O)cc1` [4-vinylphenyl boronic acid] the “Soluble?” value (Sample # 1: 10 mL deionized H2O, 11-15 mg boronic acid, vortex 5 minutes, visual) was “no”, the “Soluble?” value (Sample # 2: 10 mL stock sorbitol (0.55 M)) was “yes” and the “Soluble?” value (Sample # 3: 10 mL stock sorbitol, pH = 14) was “yes”. The “Soluble?” value (Sample # 4: 200 μL stock sorbitol, 5 mL deionized H2O) was “no”, the “Soluble?” value (Sample # 5: 5 mL deionized H2O, pH = 12.3) was “yes” and the “Soluble?” value (Sample # 6: 1 mL stock sorbitol, 5 mL deionized H2O) was “no”. For the same compound, the “Soluble?” value (Sample # 7: 2 mL stock sorbitol, 6 mL deionized H2O) was “no”, the “Soluble?” value (Sample # 8: 200 μL stock sorbitol, 5 mL deionized H2O, pH = 10.6) was “no” and the “Soluble?” value (Sample # 9: 2 mL stock sorbitol, 6 mL deionized H2O, pH = 11.0) was “yes”. The “Soluble?” value (Sample # 10: 2 mL stock sorbitol, 10 mL deionized H2O, pH = 10.4) was “yes”, the “Soluble?” value (Sample # 11: 10 mL deionized H2O, pH = 9.8) was “no” and the “Soluble?” value (Sample # 12: 2 mL stock sorbitol, 10 mL deionized H2O, pH = 9.2) was “no”. The “Soluble?” value (Sample # 13: 2 mL stock sorbitol, 10 mL deionized H2O, pH = 9.4) was “yes”.
